Biological target: T1, Toll-like receptor 7 (Mus musculus, UniProt P58681)
T1 construct: endogenous in cells; host or cells: RAW 264.7 murine macrophage cells
T1 sequence (P58681 27-1050): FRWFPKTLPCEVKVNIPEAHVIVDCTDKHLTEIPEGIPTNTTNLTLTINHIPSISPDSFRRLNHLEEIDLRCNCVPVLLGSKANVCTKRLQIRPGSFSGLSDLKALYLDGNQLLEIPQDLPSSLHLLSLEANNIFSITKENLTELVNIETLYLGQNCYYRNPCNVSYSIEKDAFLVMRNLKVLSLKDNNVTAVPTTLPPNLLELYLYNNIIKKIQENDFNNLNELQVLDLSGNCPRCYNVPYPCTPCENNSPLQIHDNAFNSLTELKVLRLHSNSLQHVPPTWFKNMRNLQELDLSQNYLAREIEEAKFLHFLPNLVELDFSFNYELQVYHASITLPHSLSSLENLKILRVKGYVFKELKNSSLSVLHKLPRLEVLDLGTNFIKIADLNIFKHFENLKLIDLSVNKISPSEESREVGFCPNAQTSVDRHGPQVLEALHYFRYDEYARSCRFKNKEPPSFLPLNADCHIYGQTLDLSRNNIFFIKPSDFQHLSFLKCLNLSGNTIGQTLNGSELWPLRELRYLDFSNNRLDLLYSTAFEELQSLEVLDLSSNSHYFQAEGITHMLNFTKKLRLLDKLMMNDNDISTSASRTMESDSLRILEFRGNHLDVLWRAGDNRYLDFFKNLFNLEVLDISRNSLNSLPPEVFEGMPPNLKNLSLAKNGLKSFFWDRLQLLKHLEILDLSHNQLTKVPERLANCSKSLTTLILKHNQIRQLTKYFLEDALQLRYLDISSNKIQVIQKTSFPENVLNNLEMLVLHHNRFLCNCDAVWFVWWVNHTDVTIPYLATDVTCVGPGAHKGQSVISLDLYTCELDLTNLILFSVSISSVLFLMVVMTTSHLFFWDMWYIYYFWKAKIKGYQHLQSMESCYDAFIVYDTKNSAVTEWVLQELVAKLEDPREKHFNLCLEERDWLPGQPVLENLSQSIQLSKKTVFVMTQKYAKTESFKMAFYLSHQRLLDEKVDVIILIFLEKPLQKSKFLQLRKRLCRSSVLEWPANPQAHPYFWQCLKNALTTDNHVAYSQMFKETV
Experiment: Secreted TNF-α (ALPHA-LISA) in RAW 264.7 macrophages treated with miRNAs (TLR7 activation)
Type: cell-based, murine
Conditions: RAW 264.7 cells, 5 ug RNA, 6, 24 and 48 h
Method: FIG. 11A-11C depict how miR-146a and miR-142-3p bind to and activate the inflammatory Toll-like receptor 7. 11A) RAW 264.7 murine macrophage cells were treated the indicated treatments for 6, 24 and 48 h: 1) negative CTRL (−)=no treatment; 2) Gardiquimod (3 ug/mL)=+control for TLR7 activation; 3) miR-146a (5 ug) sequence: […] (SEQ ID NO:70), 4) miR-142-3p (5 ug) […] (SEQ ID NO:71); 5) miR-146amut (5 ug, sequence: […] (SEQ ID NO:72)); 6) miR-142-3pmut (5 ug, sequence: […] (SEQ ID NO:73)). After the indicated timepoints, media was collected and an ALPHA-LISA was performed to measure the amount of secreted TNF-α. […] B) RAW 264.7 murine macrophage cells were treated with gardiquimod or the indicated microRNAs for 48 h, where peak activation was observed. Secreted TNF-α was assessed as in A) using an ALPHA-LISA. C) HEK 293 cells were transfected with a plasmid encoding TLR7-YFP (green) and either a Cy5-miR-146a or Cy5-miR-142-3p (red). 48 h post-transfection cells were fixed and confocal microscopy was performed using an Olympus FV-1000 at 100× magnification.
In the case of “miR-142-3p: microRNA, sequence uguaguguuuccuacuuuaugga (SEQ ID NO:71) (UGUAGUGUUUCCUACUUUAUGGA; listed as RNA, chemistry not given here; listed as Homo sapiens)”, the “secretion of TNF-α (TLR7 activation)” value is reported as “activate secretion of TNF-α”. In the case of “miR-142-3pmut: uridine-deficient mutant microRNA, sequence agaagagaaaccaacaaaaugga (SEQ ID NO:73) (AGAAGAGAAACCAACAAAAUGGA; listed as RNA, chemistry not given here; listed as Homo sapiens)”, the “secretion of TNF-α (TLR7 activation)” value is reported as “prevents activation”. In the case of “miR-146amut: uridine-deficient mutant microRNA, sequence agagaacagaaaaccacgggaa (SEQ ID NO:72) (AGAGAACAGAAAACCACGGGAA; listed as DNA, chemistry not given here; listed as Homo sapiens)”, the “secretion of TNF-α (TLR7 activation)” value is reported as “prevents activation”.

Tested on: miRNA sequences
Experiment: not given
Conditions: known mechanism listed in Table 6; compounds will be tested; cited from earlier work
In the case of `N[C@@H]1C[C@H]1c1ccccc1` [Tranyl- cypromine hemisulfate], the Activity is given as “Lysine-specific demethylase 1 (LSD1/BHC110) inhibitor”. For `O=C(O)CCNc1cc(N2CCc3ccccc3CC2)nc(-c2ccccn2)n1` [GSK-J1 (cell impermeable)], the Activity is listed as “Jumonji H3K27 histone demethylase (JMJD3/UTX) inhibitor”. For `CN(C)NC(=O)CCC(=O)O` [Daminozide], the Activity is listed as “KDM2/KDM7 JmjC subfamily of histone demethylase inhibitor”. For `COc1cc2nc(N3CCCN(C)CC3)nc(NC3CCN(Cc4ccccc4)CC3)c2cc1OC` [BIX-01294], the Activity is listed as “G9a histone methyltransferase/ GLP histone methyltransferase (G9a/GLP) inhibitor”. For `COC(=O)CNC(=O)C(=O)OC` [DMOG], the Activity is given as “Prolyl hydroxylase domain- containing protein (PHD/JMJD2A) inhibitor”. In the case of `Cc1ccc(-n2sc3ccccc3c2=O)cc1` [PBIT], the Activity is listed as “Jumanji AT-rich interactive domain 1 family of lysine demethylases (JARID1) inhibitor”. For `O=C(/C=C/c1cccnc1)NCCCCC1CCN(C(=O)c2ccccc2)CC1` [FK-866 HCI], the Activity is listed as “Nicotinamide phosphoribosyl- transferase (Nampt) inhibitor”. In the case of `O=C(Nc1cccc(Br)c1)c1cccc(S(=O)(=O)N2CCCCCC2)c1` [AK-7], the Activity is listed as “NAD-dependent deacetylase sirtuin 2 (SIRT2) inhibitor”.

Biological target: T2, TLR7 (Mus musculus, UniProt P58681)
T2 construct: endogenous in cells; host or cells: RAW 264.7 murine macrophage cells
T2 sequence (P58681 27-1050): T1 sequence (P58681 27-1050)
Experiment: Competition of TLR7 activation by uridine-deficient mutant miRNA in RAW 264.7 cells (secreted TNF-α)
Type: cell-based, murine
Conditions: constant dose of parent miRNA with increasing doses of mutant, 48 hours
Method: A) HEK 293 cells were transfected with a plasmid encoding TLR7-YFP (green) and either a Cy5-miR-146a mutant microRNA or Cy5-miR-142-3p mutant microRNA (red) […] post-transfection cells were fixed and confocal microscopy was performed using an Olympus FV-1000 at 100× magnification. […] B) RAW 264.7 murine macrophage cells were treated with a constant dose of miR-146a with increasing doses of a uridine-deficient miR-146a mutant. 48 hours later TLR7 activation was assessed via secreted TNF-α. […] C) RAW 264.7 murine macrophage cells were treated with a constant dose of […] with increasing doses of a uridine-deficient miR-142-3pmutant. 48 hours later TLR7 activation was assessed via secreted TNF-α.
For “miR-142-3pmut: uridine-deficient mutant microRNA, sequence agaagagaaaccaacaaaaugga (SEQ ID NO:73) (AGAAGAGAAACCAACAAAAUGGA; listed as RNA, chemistry not given here; listed as Homo sapiens)”, the “competition of TLR7 activation by the parent miRNA” value was “can compete away TLR7 activation”. With “miR-146amut: uridine-deficient mutant microRNA, sequence agagaacagaaaaccacgggaa (SEQ ID NO:72) (AGAGAACAGAAAACCACGGGAA; listed as DNA, chemistry not given here; listed as Homo sapiens)” the “competition of TLR7 activation by the parent miRNA” value was “can compete away the activation of TLR7 by miR-146a”.

— patent US12281304B2, “Compositions and methods for treating and preventing muscular disorders and dystrophies, steroid side effects, and inflammation” (Children's National Medical Center, priority 2018, dated 2025)
